Entries after “also recorded” stand apart in the source; their conditions may differ.
Assays:
HIV RNA splicing = experiment: Sequence capture and 454 pyrosequencing of HIV RNA in infected PBMCs; format: cell-based, HIV-1
Experimental: To test whether Compound 22 influences the splicing of HIV RNA in infected cells, an array-based sequence capture was performed using a customized library probes targeting HIV sequences to get rid of cellular RNA. The probes were used to capture cDNAs prepared from infected treated and untreated PBMCs. After double capture, libraries were prepared and sequenced using 454 pyrosequencing (according to GS junior method manual). The average size of the reads around 400 bp allowed unambiguous assembly of viral genome from untreated sample (after 3 and 6 days of infection) using reads that were not mapped to human genome (hg19). All sequencing data were analysed using gsnap, as detailed in Wu et al. (Fast and SNP-tolerant detection of complex variants and splicing in short reads. Bioinformatics 26, 873-881 (2010)).

PBMCs = experiment: Lymphocyte populations in treated PBMCs; format: cell-based, human; conditions: PBMCs under treatment
[1] = tested on: alternative splicing events of endogenous genes; experiment: RT-PCR analysis of global alternative splicing events in PBMC samples; format: cell-based, human
Text: Quantification of non-viral RNA splicing is achieved using the protocols detailed in […] et al. (Multiple alternative splicing markers for ovarian cancer. Cancer Res. 68, 657-663 (2008)) and Venables et al. (Cancer-associated regulation of alternative splicing. Nat. Struct. Mol. Biol. 16, 670-676 (2009)). […] These 382 alternative splicing events (ASEs) represent a high throughput random snapshot of global alterations of alternative splicing. We performed high throughput PCR analysis of these (essentially random) 382 ASEs on multiple PBMC samples, either from untreated (cells) or treated with DMSO, Compound 22 or with the control antiviral drug (Darunavir). Analysis of the data allowed further stringent quality controls; ASEs were only considered if >75% of the products ran at the expected mobilities (i.e. if the reactions were pure) and if total expected PCR concentration was higher than 20 nM (i.e. if the reactions were strong) which led to 264 remaining ASEs.

[2] = tested on: resistant mutants of NL4.3 strain (K103N, K65R and M184V); conditions: human PBMCs, NL4.3 mutants K103N
HIV-1 genome (YU2) = experiment: Deep sequencing of virus from treated infected primary macrophages and after amplification in PBMCs; format: cell-based; conditions: deep sequencing across HIV-1 genome, treated vs untreated samples
Text: To test for emergence and/or selection of mutations associated with Compound 22 treatment, we applied a deep sequencing approach for sensitive detection of low-frequency viral variants across the entire HIV-1 genome. Viruses derived from treated and untreated infected primary macrophages of 4 different donors were sequenced and reads not aligning to human genome were aligned to YU2 sequence using gsnap, as detailed in Wu et al. (Fast and SNP-tolerant detection of complex variants and splicing in short reads. Bioinformatics 26, 873-881 (2010)).
To ascertain that amplification of viruses from treated samples will not mutate when amplified in PBMCs, they were sequenced following amplification with or without drug pressure.

HIV-1 strain Ada-MR5 = experiment: HIV-1 p24 production in infected activated PBMCs (ELISA); format: cell-based; conditions: stimulated PBMCs, supernatant 6 days post-infection, increasing concentrations
Text: FIG. 1. Potency of quinoline derivatives to inhibit HIV-1 production in PBMC- and macrophages-infected cells. […] Each point represents 6 donors. B) HIV-1 strain YU2 was used to infect triplicate of monocyte derived-macrophages from different donors in the absence or presence of increasing concentrations of Compound 22. […] Each point represents 8 donors.
Buffy coats from HIV-negative individuals were obtained from the local blood donation center in Zurich, Switzerland (http://www.blutspendezurich.ch/) and Centre de transfusion sanguine Montpellier. Human peripheral blood mononuclear cells (PBMCs) were isolated by Ficoll (Axis-Shield PoC AS) gradient centrifugation. The cells have then been cultivated at 37° C., 5% CO2 to a density of 1×10^6 cells/mL in RPMI Glutamax medium (Life Technologies Ref 61870-010) supplemented with 10% fetal calf serum (FCS) (Thermo Fischer Ref SV30160.03), 1000 U/mL of IL2 (Peprotech Ref 200-02) and 5 μg/mL of PHA (Roche Ref 1249738) for activation. Three days later, cells have been pooled and resuspended to a density of 1×10^6 cells/mL in RPMI Glutamax medium supplemented with 10% fetal calf serum (FCS) 1000 U/mL of IL-2 for infection. HIV-1 infection has been performed with 10 μg of Ada-M R5 HIV strain per mL of cells for 4 hours. […]
Cells were treated with 0.01 μM up to 30 μM and p24 antigen levels were monitored in culture supernatant over a 12 day period. […]

[3] = tested on: lymphocyte populations (CD45+; CD4+ and CD8+); experiment: Lymphocyte populations in engrafted humanized mice treated for 30 days; format: in vivo; conditions: 20 mg/kg or 40 mg/kg for one month, compared to controls without treatment
Experimental: C) Engrafted NSG humanized mice were treated by oral gavage with Compound 22 at either 20 mg or 40 mg/kg once a day for 30 days and indicated lymphocyte populations (CD45+; CD4+ and CD8+) were monitored by FACS analysis.
NOD.scid.IL2R−/− (NSG) mice were bred and maintained in individual ventilated cages and were fed autoclaved food and water.
Briefly, newborn (<5 days old) NSG mice received sub-lethal (1Gy) total body irradiation with a Cs source, and then received 2×105 transduced or untransduced CD34+ human HSCs using a 50 μl Hamilton syringe via the intrahepatic (i.h.) route. All manipulations of NSG-HIS mice were performed under laminar flow. […] Mice were monitored three times a week for symptoms or signs of adverse events, according to a standard score sheet.
Cell suspensions were labeled with anti-human monoclonal antibodies (mAb) targeting the following cell-surface markers: CD45-FITC, CD3-PE, CD4-Pe Cy7, CD8-BV421 and CD19-APC (all from Biolegend). Washing and reagent dilutions were done with FACS buffer (PBS containing 2% fetal calf serum and 0.05% sodium azide (NaN3). All acquisitions were performed on a Cyan ADP (Beckman Coulter) flow cytometer. Data were analyzed with FlowJo software (Ashland, Oreg.). Cellular debris and dead cells were excluded by their light-scattering characteristics.

HIV-1 strain YU2 = experiment: HIV-1 p24 production in infected monocyte derived macrophages (ELISA); format: cell-based; conditions: Human immunodeficiency virus 1, Primary macrophage; primary macrophages infected with Yu-2, at 0.1 μM; read-out: inhibition levels of virus replication (p24)
Text: FIG. 1. Potency of quinoline derivatives to inhibit HIV-1 production in PBMC- and macrophages-infected cells. […] Each point represents 6 donors. B) HIV-1 strain YU2 was used to infect triplicate of monocyte derived-macrophages from different donors in the absence or presence of increasing concentrations of Compound 22. […] Each point represents 8 donors. To generate monocyte derived macrophages (MDMs), monocytes were isolated using CD14 microbeads (catalog no. 130-050-201; Miltenyi) and cultured in X-VIVO10 medium (Lonza) supplemented with GM-CSF 1000 U/ml and M-CSF 100 ng/ml for 6 days. Monocytes were seeded at a cell count of 50,000 cells per well in a 96 well plate. After 6 days medium was replaced with X-VIVO10 w/o Cytokines. After 2 days Macrophages were treated with Compound 22 and/or its N-glucuronide metabolite o/n and next day infected with Yu-2 virus for 6 hrs, washed with PBS and cultured in medium containing the compounds for 12 days. Supernatant for p24 Elisa was collected 2 times a week. Cells were treated with 0.01 μM up to 30 μM and p24 antigen levels were monitored in culture supernatant over a 12 day period. Cell culture supernatant HIV p24 titration was performed by ELISA with Ingen Innotest kit (Ingen Ref 80564) according to the manufacturer's instructions.

FC(F)(F)Oc1ccc(Nc2ccc3cccc(Cl)c3n2)cc1 [Compound 22, 8-chloro-N-(4-(trifluoromethoxy)phenyl)quinolin-2-amine]
effect on spliced HIV RNA (HIV RNA splicing): favours spliced HIV RNA | coverage of viral genome (number of reads) (HIV RNA splicing; 3 days post infection): 4149 reads | reads corresponding to splice junctions (HIV RNA splicing; 3 days post-infection): 17.4% | number of reads (HIV RNA splicing; 6 days post-infection): 20 585 | reads corresponding to splice junctions (HIV RNA splicing; 6 days post-infection): 13.3% | populations of lymphocytes present in PBMCs (PBMCs): did not alter | global effect on pre-mRNA splicing [1]: no global effect | inhibition of replication of viral strains harbouring resistance mutations (RT activity) [2]: very efficiently inhibits | selection of specific viral mutations (HIV-1 genome (YU2)): does not select for specific mutations; also recorded: unlikely to select for specific viral mutations | selection of specific viral mutations (HIV-1 genome (YU2); listed as compound 22): do not select for HIV specific mutations | inhibition of HIV-1 replication (p24 antigen) (HIV-1 strain Ada-MR5): dose dependent inhibition | engraftment values of CD45+ cells and ratio of CD8+/CD4+ [3]: neither alters engraftment values of CD45+ cells nor the ratio of CD8+/CD4+ | inhibition at 0.1 µM (HIV-1 strain YU2): ≤ 90%

Source: US10806729B2, “Quinoline derivatives for use in the treatment or prevention of viral infection” (ABIVAX, priority 2015, dated 2020)
